Data taken from patent publication US8765941B2 (Kino Pharma, Inc., priority 2008, dated 2014).
Where two headings read alike, the source gives them in different places.

What was measured:
[1] = tested on: intracellular HCV protein (NS3-NS4-NS5A-NS5B); test: HCV viral protein expression assay using LuHCV cells (luciferase activity); conditions: for activity at 10 µM / activity at 20 µM: Hepatitis C virus, 48 h, read-out: luc activity (% control); for luciferase activity (result in words): 0, 10 and 20 μM
Procedure: As an HCV viral protein expression assay, screening was performed for compounds having anti-HCV activity using human hepatocytes with which the replication and expression of the intracellular HCV protein (NS3-NS4-NS5A-NS5B) can be evaluated through determination of luciferase activity (hereinafter, referred to as LuHCV).
LuHCV cells were plated onto 96-well plates at 5×10^3 cells/50 μL/well and then incubated overnight. Test compounds were each dissolved in dimethyl sulfoxide (DMSO) and dilution series were prepared using DMSO, if necessary. On the next day of plating of LuHCV cells, a medium containing a test compound with a concentration twice the final test concentration was added at 50 μL/well. Cells were gently cultured under culture conditions of 48 hours, 37° C., and 5% CO2 (the final concentrations of the test compounds: 0, 10, and 20 μM). At this time, analysis was made using 3 test wells for each test compound and for each concentration.
Culture medium was removed after 48 hours. Glo lysis buffer (100 μL) (Promega) was added to each well and then cells were disrupted, so that a cell extract was obtained. With the use of 50 μL of the thus obtained cell extract, 50 μL of a Bright-Glo™ Luciferase Assay System (Promega) reagent was added. Luciferase activity in the extract was determined by measuring luminescence intensity for one second using a measuring device ARVO (PerkinElmer Co., Ltd.).
Based on the thus obtained numerical values of luminescence intensity, an average value for each test compound at each concentration was calculated. The luminescence intensity percentage for each test compound was calculated based on a luminescence intensity for DMSO (used as a control for test substances) as 100%.
Culture medium was removed after 48 hours. Glo Lysis buffer (100 μL) (Promega) was added to each well and then cells were disrupted, so that a cell extract was obtained. With the use of 50 μL of the thus obtained cell extract, 50 μL of a Bright-Glo™ Luciferase Assay System (Promega) reagent was added. Luciferase activity in the extract was determined by measuring luminescence intensity for one second using a measuring device ARVO (PerkinElmer Co., Ltd.).
Based on the thus obtained numerical values of luminescence intensity, an average value for each test compound at each concentration was calculated. The luminescence intensity percentage for each test compound was calculated based on a luminescence intensity of DMSO (used as a control for test substances) as 100%.

[2] = tested on: LuHCV cells; test: Evaluation of cell growth suppression using LuHCV cells (percentage of viable cells, reagent SF); format: cell-based, human; conditions: 48 hours, DMSO = 100%
Procedure: At this time, as a background absorbance, measurement was also performed for wells containing test compounds (or DMSO used as a control), but containing no cells. Each of the thus obtained background numerical values was deducted from the absorbance of a cell-containing well (measured for the same compound at the same concentration). The resulting value was designated as actual measurement of number of viable cells containing no background. […] With an average value measured for DMSO used as a control test substance designated as 100%, the percentage of the number of viable cells for each test compound was calculated.
At this time, as a background absorbance, measurement was also performed for wells containing test compounds (or containing DMSO used as a control), but containing no cells. Each of the thus obtained background numerical values was deducted from the absorbance of a cell-containing well (measured for the same compound at the same concentration). The resulting value was designated as actual measurement of number of viable cells containing no background. […] By using a value measured upon addition of DMSO used as a control test substance designated as 100%, the percentage of the number of viable cells for each test compound was calculated. Table 1-2 and FIG. 2B show the percentage of the number of viable cells (cell viability (% control)) for each test compound at each concentration.

[3] = tested on: influenza virus; conditions: for cell death due to influenza virus infection (result in words): 5 and 10 μM, 48 hours, MDCK cells

| SMILES | activity at 10 µM [1] [%] | activity at 20 µM [1] [%] | viability (% control) ([2]; 10 μM) | viability (% control) ([2]; 20 μM) | viability (% control) ([3]; 5 µM) | viability (% control) ([3]; 10 µM) | cell death due to influenza virus infection (result in words) [3] | luciferase activity (result in words) ([1]; 48 hours, LuHCV cells) | decrease in luminescence intensity compared with the control ([1]; 10 μM, 48 hours, LuHCV cells) |
| --- | --- | --- | --- | --- | --- | --- | --- | --- | --- |
| O=C(NC(=S)Nc1cc(C(F)(F)F)ccc1N1CCCCCCCC1)c1ccccc1 [Compound 24, 1-benzoyl-3-[2-(azacyclononan-1-yl)-5-(trifluoro-methyl)phenyl]thiourea] | 56.4 | 39.4 | 108.20 | 110.15 | – | – | – | – | – |
| Cc1ccc(C(=O)NC(=S)Nc2cc(C(F)(F)F)ccc2N2CCCCCCC2)cn1 [Compound 10, N-(6-methylnicotinoyl)-N′-[2-(azacyclo-octan-1-yl)-5-(trifluoro-methyl)phenyl]thiourea] | 41.2 | 26.9 | 96.19 | 89.38 | – | – | – | – | – |
| O=C(NC(=S)Nc1cc(F)ccc1N1CCCCCCC1)c1cccnc1 [Compound 9] | 33.6 | 26 | 82.79 | 73.39 | – | – | – | – | – |
| O=C(NC(=S)Nc1cc(C(F)(F)F)ccc1N1CCCCCCC1)c1ccccc1 [Compound 14, N-benzoyl-N′-[2-(azacyclooctan-1-yl)-5-(trifluoromethyl)phenyl]thiourea] | 30.3 | 14.8 | 103.81 | 103.76 | 71.6 ± 2.2 | 100.0 ± 2.0 | cell death was decreased | – | – |
| FC(F)(F)c1ccc(N2CCCCC2)c(NC(=S)c2ccncc2)c1 [Compound 2, N-[2-(1-piperidinyl)-5-(trifluoromethyl)phenyl]isonicotinthioamide] | – | – | – | – | – | – | – | Decreases in luciferase activity | – |
| Cc1ccc(C(=O)NC(=S)Nc2cc(C(F)(F)F)ccc2N2CCCCCCC2)cc1 [Compound 11] | 35.8 | 29.8 | 89.95 | 89.20 | – | – | – | – | – |
| O=C(NC(=S)Nc1cc(C(F)(F)F)ccc1N1CCCCCC1)c1cccnc1 [Compound 4, N-nicotinoyl-N′[2-(azacycloheptan-1-yl)-5-(trifluoromethyl)phenyl]thiourea] | 65.8 | 44.5 | 93.86 | 89.76 | – | – | – | – | – |
| FC(F)(F)c1ccc(N2CC[C@H]3CCCC[C@@H]3C2)c(NC(=S)c2ccncc2)c1 (relative stereo) [Compound 22, N-[2-(trans-3-azabicyclo[4.4.0]decan-3-yl)-5-(trifluoromethyl)phenyl]isonicotinthioamide] | 42.6 | 21.9 | 104.65 | 96.39 | – | – | – | – | – |
| COc1ccccc1C(=O)NC(=S)Nc1cc(C(F)(F)F)ccc1N1CCCCCCC1 [Compound 15, N-(2-methoxybenzoyl)-N′-[2-(azacyclooctan-1-yl)-5-(trifluoromethyl)phenyl]thiourea] | 45.8 | 37.6 | 107.86 | 107.33 | – | – | – | – | – |
| O=C(NC(=S)Nc1cc(C(F)(F)F)ccc1N1CCCCCCC1)c1ccoc1 [Compound 17] | 26.1 | 17.6 | 112.89 | 108.81 | – | – | – | – | – |
| O=C(NC(=S)Nc1cc(C(F)(F)F)ccc1N1CCCCCCC1)c1ccc(F)cc1 [Compound 13, N-(4-fluorobenzoyl)-N′-[2-(azacyclooctan-1-yl)-5-(trifluoromethyl)phenyl]thiourea] | 34.1 | 28.5 | 101.56 | 104.05 | – | – | – | – | – |
| FC(F)(F)c1ccc(N2CCC[C@H]3CCCC[C@@H]32)c(NC(=S)c2ccncc2)c1 (relative stereo) [Compound 21, N-[2-(trans-2-azabicyclo[4.4.0]-decan-2-yl)-5-(trifluoromethyl)phenyl]isonicotinthioamide] | 56.8 | 34 | 94.44 | 93.56 | – | – | – | – | – |
| O=C(NC(=O)c1cccnc1)Nc1cc(C(F)(F)F)ccc1N1CCCCCCC1 [Compound 8, N-nicotinoyl-N′-[2-(azacyclooctan-1-yl)-5-(trifluoro-methyl)phenyl]urea] | 55.7 | 58 | 77.35 | 77.81 | – | – | – | – | – |
| O=C(NC(=S)Nc1cc(C(F)(F)F)ccc1N1CC[C@H]2CCCC[C@@H]2C1)c1ccccc1 (relative stereo) [Compound 23, 1-benzoyl-3-[2-(trans-3-azabicyclo[4.4.0]decan-3-yl)-5-(trifluoromethyl)phenyl]thiourea] | 64 | 49.4 | 106.72 | 104.93 | – | – | – | – | – |
| O=C(Nc1cc(C(F)(F)F)ccc1N1CCC[C@H]2CCCC[C@@H]21)c1ccncc1 (relative stereo) [Compound 19, N-[2-(trans-2-azabicyclo[4.4.0]decan-2-yl)-5-(trifluoromethyl)phenyl]isonicotinamide] | 51 | 33.5 | 99.02 | 91.02 | – | – | – | – | – |
| O=C(NC(=S)Nc1cc(C(F)(F)F)ccc1N1CCCCC1)c1cccnc1 [Compound 3, 1-nicotinoyl-3-[2-(1-piperidinyl)-5-(trifluoromethyl)phenyl]thiourea] | 69.3 | 43.2 | 103.79 | 93.82 | – | – | – | – | – |
| O=C(Nc1cc(C(F)(F)F)ccc1N1CCCCCCCC1)c1ccncc1 [Compound 20, W[2-(azacyclononan-1-yl)-5-(trifluoromethyl)-phenyl]isonicotinamide] | 48.3 | 22.7 | 111.50 | 105.35 | – | – | – | – | – |
| O=C(NC(=S)Nc1cc(C(F)(F)F)ccc1F)c1cccnc1 [Compound 16, N-nicotinoyl-N′-[2-fluoro-5-(trifluoro-methyl)phenyl]thiourea] | 58.1 | 48.9 | 85.21 | 79.86 | – | – | – | – | – |
| O=C(NC(=S)Nc1cc(C(F)(F)F)ccc1N1CCCCCCCC1)c1cccnc1 [Compound 6, N-nicotinoyl-N′-[2-(azacyclononan-1-yl)-5-(trifluoromethyl)phenyl]thiourea] | – | – | – | – | 42.1 ± 1.5 | 80.9 ± 3.2 | cell death was decreased | Decreases in luciferase activity | about 50% |
| O=C(NC(=S)Nc1cc(C(F)(F)F)ccc1N1CCCCCCC1)c1ccncc1 [Compound 7, N-isonicotinoyl-N′-[2-(azacyclooctan-1-yl)-5-(trifluoromethyl)phenyl]thiourea] | 30.7 | 16.4 | 76.97 | 71.85 | – | – | – | – | – |
| COc1ccc(C(=O)NC(=S)Nc2cc(C(F)(F)F)ccc2N2CCCCCCC2)cc1 [Compound 12, N-(4-methoxybenzoyl)-N′-[2-(azacyclooctan-1-yl)-5-(trifluoromethyl)phenyl]thiourea] | 32.8 | 28.6 | 94.69 | 88.78 | – | – | – | – | – |
